# Like-named read-outs stand apart in the source and are kept apart here.
# What was measured:
# [1] = CellTiter 96 AQueous One Solution (MTS) cell proliferation assay; format: cell-based; settings: human, MM.1S multiple myeloma cells; MM.1S cells, 72 h treatment; read-out: Cytotoxicity [EC50]
# Excerpt: The CellTiter 96® AQueous One Solution cell proliferation assay (Promega) was used on MM.1S multiple myeloma cell line to study the cytotoxic and cytostatic properties of the compounds. The assay is based on the cleavage of the tetrazolium salt, MTS, in the presence of an electron-coupling reagent PES (phenazine ethosulfate). The MTS tetrazolium compound is bioreduced by cells into a colored formazan product that is soluble in tissue culture medium. This conversion is presumably accomplished by NADPH or NADH produced by dehydrogenase enzymes in metabolically active cells. Assays are performed by adding a small amount of the CellTiter 96® AQueous One solution reagent directly to culture wells, incubating for 1-4 hours and then recording the absorbance at 490 nm with a 96-well plate reader.
# The cells were seeded at 5×10^3 to 1.5×10^4 cells (depending on cell type) in each well of a 96-well plate in 100 μL of fresh culture medium and adherent cells were allowed to attach overnight. The stock solutions of the compounds were diluted in cell culture medium to obtain eight concentrations of each drug, ranging from 1 nM to 30 μM and DMSO at less than 1% v/v was used as a negative control. The resulting drug solutions were transferred onto the cells. After 72 h of treatment, 20 μl of CellTiter 96® AQueous reagent was added into each well of the 96-well assay plates and the plate was incubated at 37° C. for 1-4 hours in a humidified, 5% CO2 atmosphere. Then the absorbance of each well was recorded at 490 nm using a 96-well plate reader. In most cases, the assay was performed in triplicate and the results were presented as half maximal inhibitory concentration (IC50). Optical density versus compound concentration was plotted and analyzed using non-linear regression equations (IDBS XLfit) and the IC50 for each compound was calculated.
# [2] = Pharmacokinetic (PK) assay, plasma AUC; format: in vivo; settings: mouse, PO
# Description: Pharmacokinetics (PK) play an increasing role in drug discovery and development. Pharmacokinetics is the quantitative study of the time course of drug absorption, distribution, metabolism and/or excretion. When a drug is administered, it distributes rapidly from its administration site into the systemic blood circulation. One measure of the extent of a therapeutic agent's distribution is the area under the plasma concentration-time curve (AUC), calculated to the last measured concentration (AUCt) and extrapolated to infinity (AUCinf). AUC is thus a useful metric to quantitate drug exposure. AUC. Blood was collected from mice (N=3) to contribute to the total of 10 time points (pre-dose, 5 min, 15 min, 30 min, 1 hour, 2 hours, 4 hours, 8 hours, 12 hours and 24 hours post dose). Mice were bled on a rotating basis, each mouse contributing 3 time points to the blood collection. At the designated time points, animals were anaesthetized under isoflurane, and approximately 110 μL of blood per time point was collected via retro-orbital puncture into pre-cooled K2EDTA (anti-coagulant) tubes. Blood samples were put on wet ice and centrifuged (2000 g, 5 min at 4° C.) to obtain plasma within 30 minutes of sample collection. All samples were stored frozen at approximately −80° C. until analysis. Prior to analysis, samples were mixed with internal standard (dexamethasone) in acetonitrile, vortexed, centrifuged, and supernatant was injected for analysis. Concentration of compounds in plasma was determined using LC-MS-MS instrumentation (API 4000, Triple Quadruple with electrospray ionization; Acuity Ultra Performance Liquid Chromatography column C18, with MeOH and formic acid as organic solvents). AUC values were calculated using WinNonlin Professional 6.2 software package, non-compartmental pharmacokinetic model NCA200.
# [3] = Brain to plasma (B:P) ratio determination; format: in vivo; settings: brain and plasma; mouse, PO at 10 mg/kg, 2 hours post-dose
# Excerpt: The brain to plasma (B:P) ratio is one method of quantifying the relative distribution of a therapeutic agent in brain tissue to that in circulation and, as such, provides one indication of the brain penetration of a given therapeutic agent. A high brain to plasma ratio is preferred when targeting diseases localized in the central nervous system (CNS), including the brain and the cerebrospinal fluid. However, a lower brain to plasma ratio is generally preferable for non-CNS therapeutic agents to minimize brain penetration and avoid potential side effects caused by unwanted accumulation of the therapeutic agents in the brain and CNS tissue.
# Brain to Plasma (B:P) Ratio. […] Following collection, brain tissue was rinsed with cold saline, dried on filter paper, weighed and snap-frozen by placing on dry ice. All samples were stored frozen at approximately −80° C. until analysis. […] Plasma samples were treated with the identical method (except homogenization step) and the concentration of compound in each matrix was calculated based on generated standard curves.
# [4] = 10 mg/kg, 10 mpk, read-out: AUCInf hr * ng/mL (mouse, PO, 10 mpk)
# [5] = 5 mg/kg, 5 mpk, read-out: AUCInf hr * ng/mL (mouse, PO), tested at 5 mpk
"AUC(0-inf) [2, 4]","AUC(0-inf) [2, 5]",Kp at 2 h [3],Compound,EC50 at 72 h [1]
2640 ng·h/mL,,,"CN(C)CC1CN(C(=O)/C=C\n2cnc(-c3cc(C(F)(F)F)cc(C(F)(F)F)c3)n2)C1 [Compound 25, (Z)-3-(3-(3,5-bis(trifluoromethyl)phenyl)-1H-1,2,4-triazol-1-yl)-1-(3-((dimethylamino)methyl)azetidin-1-yl)prop-2-en-1-one]",< 1000 nM
,9050 ng·h/mL,3.16,"CC1(O)CN(C(=O)/C=C\n2cnc(-c3cc(C(F)(F)F)cc(C(F)(F)F)c3)n2)C1 [Example 8, (Z)-3-(3-(3,5-bis(trifluoromethyl)phenyl)-1H-1,2,4-triazol-1-yl)-1-(3-hydroxy-3-methylazetidin-1-yl)prop-2-en-1-one]",< 1000 nM
,1240 ng·h/mL,13.3,"NCC1(F)CN(C(=O)/C=C\n2cnc(-c3cc(C(F)(F)F)cc(C(F)(F)F)c3)n2)C1 [Compound 60, (Z)-1-(3-(aminomethyl)-3-fluoroazetidin-1-yl)-3-(3-(3,5-bis(trifluoromethyl)phenyl)-1H-1,2,4-triazol-1-yl)prop-2-en-1-one]",< 1000 nM
2510 ng·h/mL,,,"O=C(/C=C\n1cnc(-c2cc(C(F)(F)F)cc(C(F)(F)F)c2)n1)N1CC(F)C1 [Example 7, (Z)-3-(3-(3,5-bis(trifluoromethyl)phenyl)-1H-1,2,4-triazol-1-yl)-1-(3-fluoroazetidin-1-yl)prop-2-en-1-one]",< 1000 nM
10100 ng·h/mL,,,O=C(/C=C\n1cnc(-c2cc(C(F)(F)F)cc(C(F)(F)F)c2)n1)NNc1cnccn1 [Compound 70],< 1000 nM
521 ng·h/mL,,,"O=C(/C=C\n1cnc(-c2cc(C(F)(F)F)cc(C(F)(F)F)c2)n1)N1CCC1 [Compound 23, (Z)-1-(azetidin-1-yl)-3-(3-(3,5-bis (trifluoromethyl)phenyl)-1H-1,2,4-triazol-1-yl) prop-2-en-1-one]",< 1000 nM
,,,"CN(Cc1cncnc1)C(=O)/C=C\n1cnc(-c2cc(C(F)(F)F)cc(C(F)(F)F)c2)n1 [Compound 17, (Z)-3-(3-(3,5-bis(trifluoromethyl)phenyl)-1H-1,2,4-triazol-1-yl)-N-methyl-N-(pyrimidin-5-ylmethyl)acrylamide]",1000 to 10000 nM
,,,"CN(Cc1cnco1)C(=O)/C=C\n1cnc(-c2cc(C(F)(F)F)cc(C(F)(F)F)c2)n1 [Compound 22, (Z)-3-(3-(3,5-bis(trifluoromethyl)phenyl)-1H-1,2,4-triazol-1-yl)-N-methyl-N-(oxazol-5-ylmethyl)acrylamide]",1000 to 10000 nM
,,,"O=C(/C=C\n1cnc(-c2cc(C(F)(F)F)cc(C(F)(F)F)c2)n1)N1CCC(F)(F)C1 [Compound 20, (Z)-3-(3-(3,5-bis(trifluoromethyl)phenyl)-1H-1,2,4-triazol-1-yl)-1-(3,3-difluoropyrrolidin-1-yl)prop-2-en-1-one]",< 1000 nM
,3080 ng·h/mL,,"O=C(/C=C\n1cnc(-c2cc(C(F)(F)F)cc(C(F)(F)F)c2)n1)NCc1cnco1 [Example 11, (Z)-3-(3-(3,5-bis(trifluoromethyl)phenyl)-1H-1,2,4-triazol-1-yl)-N-(oxazol-5-ylmethyl)acrylamide]",< 1000 nM
,,,"O=C(/C=C\n1cnc(-c2cc(C(F)(F)F)cc(C(F)(F)F)c2)n1)N1CC2(CNC2)C1 [Compound 52, (Z)-3-(3-(3,5-bis(trifluoromethyl)phenyl)-1H-1,2,4-triazol-1-yl)-1-(2,6-diazaspiro[3.3]heptan-2-yl)prop-2-en-1-one 2,2,2-trifluoroacetate]",< 1000 nM
,,,"O=C(/C=C\n1cnc(-c2cc(C(F)(F)F)cc(C(F)(F)F)c2)n1)NCc1cncnc1 [Compound 14, (Z)-3-(3-(3,5-bis(trifluoromethyl)phenyl)-1H-1,2,4-triazol-1-yl)-N-(pyrimidin-5-ylmethyl)acrylamide]",< 1000 nM
,,,"CN1CCCC(CNC(=O)/C=C\n2cnc(-c3cc(C(F)(F)F)cc(C(F)(F)F)c3)n2)C1 (centres unmarked) [Compound 27, (Z)-3-(3-(3,5-bis(trifluoromethyl)phenyl)-1H-1,2,4-triazol-1-yl)-N-((1-methylpiperidin-3-yl)methyl)acrylamide]",< 1000 nM
,,,"O=C(/C=C\n1cnc(-c2cc(C(F)(F)F)cc(C(F)(F)F)c2)n1)N1CCC(F)(F)CC1 [Example 6, (Z)-3-(3-(3,5-bis(trifluoromethyl)phenyl)-1H-1,2,4-triazol-1-yl)-1-(4,4-difluoropiperidin-1-yl)prop-2-en-1-one]",1000 to 10000 nM
,,,"Cc1ncc(CNC(=O)/C=C\n2cnc(-c3cc(C(F)(F)F)cc(C(F)(F)F)c3)n2)c(C)n1 [Compound 31, (Z)-3-(3-(3,5-bis(trifluoromethyl)phenyl)-1H-1,2,4-triazol-1-yl)-N-((2,4-dimethylpyrimidin-5-yl)methyl)acrylamide]",< 1000 nM
,,,"O=C(/C=C\n1cnc(-c2cc(C(F)(F)F)nc(C(F)(F)F)c2)n1)N1CC(F)(F)C1 [Example 9, (Z)-3-(3-(2,6-bis(trifluoromethyl)pyridin-4-yl)-1H-1,2,4-triazol-1-yl)-1-(3,3-difluoroazetidin-1-yl)prop-2-en-1-one]",< 1000 nM
,,,"Cc1ncc(CN(C)C(=O)/C=C\n2cnc(-c3cc(C(F)(F)F)cc(C(F)(F)F)c3)n2)cn1 [Compound 18, (Z)-3-(3-(3,5-bis(trifluoromethyl)phenyl)-1H-1,2,4-triazol-1-yl)-N-methyl-N-((2-methylpyrimidin-5-yl)methyl)acrylamide]",1000 to 10000 nM
,,,"O=C(/C=C\n1cnc(-c2cc(C(F)(F)F)cc(C(F)(F)F)c2)n1)N1CCC2(CNC2)C1 [Compound 58, (Z)-3-(3-(3,5-bis(trifluoromethyl)phenyl)-1H-1,2,4-triazol-1-yl)-1-(2,6-diazaspiro[3.4]octan-6-yl)prop-2-en-1-one 2,2,2-trifluoroacetate]",< 1000 nM
396 ng·h/mL,,,"O=C(/C=C\n1cnc(-c2cc(F)cc(C(F)(F)F)c2)n1)N1CC(F)(F)C1 [Example 2, (Z)-1-(3,3-difluoroazetidin-1-yl)-3-(3-(3-fluoro-5-(trifluoromethyl)phenyl)-1H-1,2,4-triazol-1-yl)prop-2-en-1-one]",< 1000 nM
,,,"O=C(/C=C\n1cnc(-c2cc(C(F)(F)F)cc(C(F)(F)F)c2)n1)NC1CCc2ncccc21 (centres unmarked) [Compound 28, (Z)-3-(3-(3,5-bis(trifluoromethyl)phenyl)-1H-1,2,4-triazol-1-yl)-N-(6,7-dihydro-5H-cyclopenta[b]pyridin-5-yl)acrylamide]",1000 to 10000 nM
,,,"O=C(/C=C\n1cnc(-c2cc(C(F)(F)F)cc(C(F)(F)F)c2)n1)N1CCC(O)CC1 [Compound 66, (Z)-3-(3-(3,5-bis(trifluoromethyl)phenyl)-1H-1,2,4-triazol-1-yl)-1-(4-hydroxypiperidin-1-yl)prop-2-en-1-one]",< 1000 nM
,,,"O=C(/C=C\n1cnc(-c2cc(C(F)(F)F)cc(C(F)(F)F)c2)n1)N1CC(O)(C(F)(F)F)C1 [Compound 51, (Z)-3-(3-(3,5-bis(trifluoromethyl)phenyl)-1H-1,2,4-triazol-1-yl)-1-(3-hydroxy-3-(trifluoromethyl)azetidin-1-yl)prop-2-en-1-one]",< 1000 nM

# From patent US20240376114A1, “NUCLEAR TRANSPORT MODULATORS AND USES THEREOF” (Karyopharm Therapeutics Inc., priority 2011, published 2024)
